Experimental data taken from US3981999A, “Fish disease treatment” (Dainippon Pharmaceutical Co., Ltd., priority 1973, dated 1976).
Values after ≈ are worked out from the molar mass of the structure shown.

Columns and labels:
[1] = system: Aeromonas liquefaciens Y-62; assay: Bathing effect against Aeromonas infection in goldfish; type: in vivo; settings: for Percent survival: 5 days; for Number of survival after 1 day / Number of survival after 2 days / Number of survival after 3 days / Number of survival after 4 days / Number of survival after 5 days: day 0: 6 fish
Procedure: Goldfish each weighing about 8 g were infected intramuscularly with Aeromonas liquefaciens Y-62 (10^7 germs/fish) under ether anesthesia. The fish were grouped and each group was placed in 6 liters of fresh water (23° to 27°C.) containing PA in the amount indicated in Table 3.
Then, observation was made for the following 5 days. In the same manner, the control group was placed in 6 liters of fresh water without any test compound incorporated in it.

[2] = system: Aeromonas liquefaciens Y-62; assay: Oral administration to eels after Aeromonas infection; type: in vivo, eels (Anguilla Japonica); settings: oral 3.1 mg/kg/day at 4 hours after infection and next day; seventh day
Procedure: Groups of eels (Anguilla Japonica, average weight 100 g) (each group consisting of 50 eels) were infected intramuscularly with Aeromonas liquefaciens Y-62 (10^9 germs/fish). A suspension consisting of a diet containing PA was orally administered to the eels at 4 hours after the infection and on the next day, using a catheter, at a dose of 3.1 mg/kg/day.
The temperature of the water was kept at 25° to 26°C. during the entire experimental period.

Chondrococcus sp K-2 = assay: MIC by broth serial dilution; type: cell-based; settings: TY medium pH 7.3, 25°C, 48 hours; read-out: MIC
Procedure: (§1) The MIC (minimum inhibitory concentration) of a test compound was determined by the serial dilution method on various pathogenic microorganisms incubated under the following experimental conditions. The lowest concentration at which the visible growth of the organism was inhibited was considered as MIC. […]
(§2) the broth-dilution method bouillon, pH 7.2, except for Vibrio (3% NaCl-bouillon, pH 7.2), Pasteurella (2% NaCl-Brain Heart Infusion, pH 7.3 and Chondrococcus (TY medium, pH 7.3) 1 drop of a bacterial suspension per test tube (100 - 1000 minimal growing units in the medium) 25°C, except for Pseud. anguilliseptica (20°C)
(§3) 48 hours, except for Pseudo. anguilliseptica ([…])

[3] = system: Pasteurella piscicida K-1; assay: MIC by broth serial dilution; type: cell-based; settings: Photobacterium damselae, K1; 2% NaCl-Brain Heart Infusion pH 7.3, 25°C, 48 hours; read-out: MIC
Procedure: as §1, §2, §3

Vibrio anguillarum K-3 = assay: MIC by broth serial dilution; type: cell-based; settings: K3, 3% NaCl-bouillon pH 7.2, 25°C, 48 hours, read-out: MIC
Procedure: as §1, §2, §3

[4] = system: Aeromonas salmonicida Kawazu; assay: MIC by broth serial dilution; type: cell-based; settings: bouillon pH 7.2, 25°C, 48 hours, read-out: MIC
Procedure: as §1, §2, §3

[5] = system: Aeromonas salmonicida Kusuda; assay: MIC by broth serial dilution; type: cell-based; settings: bouillon pH 7.2, 25°C, 48 hours, read-out: MIC
Procedure: as §1, §2, §3

Vibrio anguillarum Km-30 = assay: MIC by broth serial dilution; type: cell-based; settings: KM30, 3% NaCl-bouillon pH 7.2, 25°C, 48 hours, read-out: MIC
Procedure: as §1, §2, §3

[6] = system: Pseudomonas anguilliseptica T-2; assay: MIC by broth serial dilution; type: cell-based; settings: T2, bouillon pH 7.2, 20°C, 7 hours, read-out: MIC
Procedure: as §1, §2, §3

[7] = system: Aeromonas salmonicida Hara-1; assay: MIC by broth serial dilution; type: cell-based; settings: HARA1, bouillon pH 7.2, 25°C, 48 hours, read-out: MIC
Procedure: as §1, §2, §3

Vibrio anguillarum A-8 = assay: MIC by broth serial dilution; type: cell-based; settings: A8, 3% NaCl-bouillon pH 7.2, 25°C, 48 hours, read-out: MIC
Procedure: as §1, §2, §3

Chondrococcus sp K-1 = assay: MIC by broth serial dilution; type: cell-based; settings: TY medium pH 7.3, 25°C, 48 hours; read-out: MIC
Procedure: as §1, §2, §3

[8] = system: Aeromonas liquefaciens Y-62; assay: MIC by broth serial dilution; type: cell-based; settings: Aeromonas hydrophila, Y62; bouillon pH 7.2, 25°C, 48 hours; read-out: MIC
Procedure: as §1, §2, §3

[9] = system: Aeromonas salmonicida Hara-2; assay: MIC by broth serial dilution; type: cell-based; settings: HARA2, bouillon pH 7.2, 25°C, 48 hours, read-out: MIC
Procedure: as §1, §2, §3

[10] = system: Pseudomonas anguilliseptica S-1; assay: MIC by broth serial dilution; type: cell-based; settings: S1, bouillon pH 7.2, 20°C, 7 hours, read-out: MIC
Procedure: as §1, §2, §3

[11] = system: Pasteurella piscicida Al-3; assay: MIC by broth serial dilution; type: cell-based; settings: Photobacterium damselae, AL3; 2% NaCl-Brain Heart Infusion pH 7.3, 25°C, 48 hours; read-out: MIC
Procedure: as §1, §2, §3

eels = assay: Oral toxicity in eels; type: in vivo, eels (Anguilla Japonica); settings: oral 2000 mg/kg, 7 days, 10 eels per group, 27° to 27.5°C
Procedure: A suspension of PA in 0.2% carboxymethylcellulose was orally given to groups each consisting of 10 eels (Anguilla Japonica, about 160 g) and observation was made for the following 7 days. The temperature of the water was kept at 27° to 27.5°C.

[12] = system: Aeromonas liquefacieus Y-62; assay: Oral effect against Aeromonas infection in goldfish; type: in vivo; settings: for Percent survival: 5 days; for Number of surviving fish after 1 day / Number of surviving fish after 2 days / Number of surviving fish after 3 days / Number of surviving fish after 4 days / Number of surviving fish after 5 days: day 0: PA 10, others 5 fish
Procedure: Goldfish each weighing about 6 - 7 g were given a fish food containing each of the test compounds. After 30 minutes, the fish were infected intramuscularly with Aeromonas liquefacieus Y-62 (about 10^7 germs/fish) under ether anesthesia. […] In the same manner, the control group was given the same fish food without the test compound.

[13] = 0.03% in diet (PA 2.5, AT-1493 2.5, AT-1557 2.2 mg/kg)
[14] = 0.1% in diet (PA 6.1, AT-1493 7.5, AT-1557 7.6, AT-1475 7.5 mg/kg)

Structure (SMILES): CCn1cc(C(=O)O)c(=O)c2cnc(N3CCCC3)nc21 [PA, 5,8-dihydro-2-pyrrolidino-8-ethyl-5-oxopyrido[2,3-d]pyrimidine-6-carboxylic acid]
- Percent survival ([1]; bathing conc. 0.5 μg/ml): 100%
- Number of survival after 1 day ([1]; bathing conc. 0.5 μg/ml): 6
- Number of survival after 2 days ([1]; bathing conc. 0.5 μg/ml): 6
- Number of survival after 3 days ([1]; bathing conc. 0.5 μg/ml): 6
- Number of survival after 4 days ([1]; bathing conc. 0.5 μg/ml): 6
- Number of survival after 5 days ([1]; bathing conc. 0.5 μg/ml): 6
- Percent survival ([1]; bathing conc. 1 μg/ml): 100%
- Number of survival after 1 day ([1]; bathing conc. 1 μg/ml): 6
- Number of survival after 2 days ([1]; bathing conc. 1 μg/ml): 6
- Number of survival after 3 days ([1]; bathing conc. 1 μg/ml): 6
- Number of survival after 4 days ([1]; bathing conc. 1 μg/ml): 6
- Number of survival after 5 days ([1]; bathing conc. 1 μg/ml): 6
- rate of survival [2]: 100%
- MIC (Chondrococcus sp K-2): 0.3 µg/mL (≈ 1.04 µM)
- MIC [3]: 1 µg/mL (≈ 3.47 µM)
- MIC (Vibrio anguillarum K-3): 1 µg/mL (≈ 3.47 µM)
- MIC [4]: 0.1 µg/mL (≈ 0.347 µM)
- MIC [5]: 0.1 µg/mL (≈ 0.347 µM)
- MIC (Vibrio anguillarum Km-30): 3 µg/mL (≈ 10.4 µM)
- MIC [6]: 0.1 µg/mL (≈ 0.347 µM)
- MIC [7]: 0.1 µg/mL (≈ 0.347 µM)
- MIC (Vibrio anguillarum A-8): 3 µg/mL (≈ 10.4 µM)
- MIC (Chondrococcus sp K-1): 0.3 µg/mL (≈ 1.04 µM)
- MIC [8]: 1 µg/mL (≈ 3.47 µM)
- MIC [9]: 1 µg/mL (≈ 3.47 µM)
- MIC [10]: 0.1 µg/mL (≈ 0.347 µM)
- MIC [11]: 0.3 µg/mL (≈ 1.04 µM)
- survival and external appearance (eels): All eels survived without abnormality of their external appearance
- Percent survival [12, 13]: 60%
- Number of surviving fish after 1 day [12, 13]: 10
- Number of surviving fish after 2 days [12, 13]: 9
- Number of surviving fish after 3 days [12, 13]: 7
- Number of surviving fish after 4 days [12, 13]: 6
- Number of surviving fish after 5 days [12, 13]: 6
- Percent survival [12, 14]: 100%
- Number of surviving fish after 1 day [12, 14]: 10
- Number of surviving fish after 2 days [12, 14]: 10
- Number of surviving fish after 3 days [12, 14]: 10
- Number of surviving fish after 4 days [12, 14]: 10
- Number of surviving fish after 5 days [12, 14]: 10
